Data on 18 molecules can be found in patent US20240251785A1, “SMALL MOLECULE ANTAGONISTS AND AGONISTS OF ARTHROPOD KININ RECEPTORS FOR PEST CONTROL” (The Texas A&M University System, priority 2021, published 2024).

Assay [1] concerns R. microplus kinin receptor. As to the kind of experiment: High-throughput dual-addition calcium fluorescence screen on BMLK3 cells. The format is cell-based, Rhipicephalus microplus. The settings on record: for agonist NPA (%): compound 2 μmol L^−1, first addition, relative to FFFSWGa 500 nmol L^−1; for antagonist Io (%): compound 2 μmol L^−1, 5 min, then FFFSWGa 500 nmol L^−1.
Assay [2] deals with vector-only (V/O) CHO-K1 cells. As to the kind of experiment: Dose-response dual-addition calcium fluorescence assay on vector-only cells. The settings on record: V/O cells; for EC50: first addition; for IC50: second addition Rhimi-K-1 1 μmol L^−1, read-out: V/O antagonist IC50. The class given is cell-based.
Assay [3] has as its target recombinant tick kinin receptor (BMLK3) (Rhipicephalus microplus, UniProt Q9NHA4). Put plainly: Dose-response dual-addition calcium fluorescence assay on BMLK3 cells. The class given is cell-based. As to conditions: for validation mark in dose-response assay: Table 3; for EC50: first addition, 20 concentrations 28 nM-25 μM, read-out: BMLK3 EC50; for IC50: second addition Rhimi-K-1 1 μmol L^−1, read-out: BMLK3 IC50.

Sequence of recombinant tick kinin receptor (BMLK3) (Q9NHA4 entry or part of it): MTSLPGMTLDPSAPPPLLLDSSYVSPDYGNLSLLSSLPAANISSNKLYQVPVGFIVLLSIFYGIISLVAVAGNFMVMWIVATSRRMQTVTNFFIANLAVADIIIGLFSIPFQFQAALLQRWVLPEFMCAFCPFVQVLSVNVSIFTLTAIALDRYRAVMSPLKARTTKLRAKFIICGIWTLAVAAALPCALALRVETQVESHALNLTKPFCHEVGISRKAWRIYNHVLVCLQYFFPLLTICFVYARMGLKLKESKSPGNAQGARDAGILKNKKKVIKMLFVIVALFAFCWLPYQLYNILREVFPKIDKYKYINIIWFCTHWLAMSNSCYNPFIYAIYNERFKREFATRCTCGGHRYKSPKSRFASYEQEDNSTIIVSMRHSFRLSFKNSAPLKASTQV

Broadly, the EC50 is the concentration at which the effect is half-maximal. On to `CC1(C)CSC(=NCc2ccccc2)N1C(=O)Cc1noc2ccccc12` [SACC-0024181], for which the “agonist NPA (%)” value in assay [1] was found to be 48%. Moreover, in assay [2], the EC50 is 8.1 µM and the IC50 is 6.27 µM. For the same molecule, in assay [3], the “validation mark in dose-response assay” value was “*** (molecules which are either off-target or of low activity (<25 μM))”, the EC50 turned out to be 9.01 µM and the IC50 stood at 0.252 µM.
Regarding `C=C(NNC(=S)Nc1c(C)cccc1C)c1cc2ccccc2o1` [SACC-0037245], in assay [1], the “antagonist Io (%)” value is given as 63%. In assay [2], the EC50 is < 0.0285 µM and the IC50 came out at 0.605 µM. For the same molecule, in assay [3], the “validation mark in dose-response assay” value is “*** (molecules which are either off-target or of low activity (<25 μM))”, the EC50 was 5.78 µM and the IC50 came to 4.43 µM.
For the molecule `Cc1ccc(-c2ccsc2C(=O)Nc2ccc3c(c2)CCO3)cc1` [SACC-0033336], the “agonist NPA (%)” value in assay [1] came out at 51%. In assay [2], the EC50 was found to be 4.34 µM and the IC50 was > 25 µM. Further, in assay [3], the “validation mark in dose-response assay” value is on record as “*** (molecules which are either off-target or of low activity (<25 μM))”, the EC50 worked out at 2.95 µM and the IC50 is 7.17 µM.
Turning to `Cc1n[nH]c(C)c1N1C(=O)c2cccc3c(N4CCCCCC4)ccc(c23)C1=O` [SACC-0027895], in assay [1], the “agonist NPA (%)” value was determined as 84%. In addition, in assay [2], the EC50 was > 25 µM and the IC50 is > 25 µM. Besides, in assay [3], the “validation mark in dose-response assay” value was “*** (molecules which are either off-target or of low activity (<25 μM))”, the EC50 was > 25 µM and the IC50 was > 25 µM.
Consider `COc1ccccc1NC(=O)c1cc2ccccc2cc1OCc1nnnn1C1CC1` [SACC-0095102], for which the “agonist NPA (%)” value in assay [1] is given as 145%. In addition, in assay [2], the EC50 was < 0.0285 µM and the IC50 is 2.21 µM. Besides, in assay [3], the “validation mark in dose-response assay” value is given as “*** (molecules which are either off-target or of low activity (<25 μM))”, the EC50 is 0.974 µM and the IC50 came to 1.88 µM.
Consider `CC1=C(Cc2ccccc2)C(C)Nc2ccccc2N1` (stereo not drawn) [SACC-0026915], for which the “agonist NPA (%)” value in assay [1] came out at 111%. In assay [2], the EC50 came out at 1 µM and the IC50 is > 25 µM. In assay [3], the “validation mark in dose-response assay” value is on record as “*** (molecules which are either off-target or of low activity (<25 μM))”, the EC50 is 0.662 µM and the IC50 is 4.6 µM.
In the case of `CC(=O)c1cc(C(=O)N[C@H](C)c2nc(-c3cccnc3)n[nH]2)cs1` [SACC-0007370], the “antagonist Io (%)” value in assay [1] came out at 60%. Further, in assay [2], the EC50 is < 0.0285 µM and the IC50 was > 25 µM. For the same molecule, in assay [3], the “validation mark in dose-response assay” value is “*** (molecules which are either off-target or of low activity (<25 μM))”, the EC50 turned out to be 1.78 µM and the IC50 amounted to 1.42 µM.
For the molecule `Cc1oc(S(=O)(=O)N2CCOCC2)cc1C(=O)Nc1ccc(F)cc1` [SACC-0026188], the “antagonist Io (%)” value in assay [1] is listed as 67%. In assay [2], the EC50 was found to be 0.154 µM and the IC50 is > 25 µM. In assay [3], the “validation mark in dose-response assay” value is “*** (molecules which are either off-target or of low activity (<25 μM))”, the EC50 is < 0.0285 µM and the IC50 is 0.225 µM.
`Cc1cc(N=CN(C)C)c2ccccc2n1` [SACC-0068485]: the “antagonist Io (%)” value in assay [1] was 56%. In assay [2], the EC50 amounted to 3.77 µM and the IC50 was 0.549 µM. Also, in assay [3], the “validation mark in dose-response assay” value was “*** (molecules which are either off-target or of low activity (<25 μM))”, the EC50 was 0.743 µM and the IC50 is 4.15 µM.
Consider `CCOc1ccc(NC(=N)/N=c2/nc(C(F)(F)F)cc(C)[nH]2)cc1` [SACC-0060049], for which, in assay [1], the “agonist NPA (%)” value is on record as 104%. In addition, in assay [2], the EC50 amounted to 1.93 µM and the IC50 is 0.243 µM. In assay [3], the “validation mark in dose-response assay” value is reported as “*** (molecules which are either off-target or of low activity (<25 μM))”, the EC50 is 4.55 µM and the IC50 was > 25 µM.
As to `COc1ccccc1NC(=O)c1cn(CCC#N)nc1-c1ccc(C)c(C)c1` [SACC-0095111], the “agonist NPA (%)” value in assay [1] is 71%. Also, in assay [2], the EC50 is > 25 µM and the IC50 worked out at 7.33 µM. In addition, in assay [3], the “validation mark in dose-response assay” value is given as “*** (molecules which are either off-target or of low activity (<25 μM))”, the EC50 was > 25 µM and the IC50 was determined as 3.32 µM.
For the molecule `CN1c2ccccc2Oc2nnc(Cl)cc21` [SACC-0075838], the “agonist NPA (%)” value in assay [1] worked out at 143%. In addition, in assay [2], the EC50 is > 25 µM and the IC50 was > 25 µM. Besides, in assay [3], the “validation mark in dose-response assay” value is “*** (molecules which are either off-target or of low activity (<25 μM))”, the EC50 came out at 4.37 µM and the IC50 stood at 0.0845 µM.
Consider `CCOC(=O)c1[nH]c2ccc(Br)cc2c1N=C(C)N(C)C` [SACC-0055903], for which, in assay [1], the “agonist NPA (%)” value was 75%. Moreover, in assay [2], the EC50 was determined as 3.68 µM and the IC50 amounted to 2.63 µM. Further, in assay [3], the “validation mark in dose-response assay” value is reported as “*** (molecules which are either off-target or of low activity (<25 μM))”, the EC50 amounted to 6.76 µM and the IC50 was determined as 6.02 µM.
As for `O=C(Cn1cnc2ccccc21)NCc1ccc(OCc2ccccc2)cc1` [SACC-0115325], the “antagonist Io (%)” value in assay [1] is reported as 83%. In assay [2], the EC50 is > 25 µM and the IC50 was > 25 µM. Further, in assay [3], the “validation mark in dose-response assay” value was “*** (molecules which are either off-target or of low activity (<25 μM))”, the EC50 was found to be 0.299 µM and the IC50 was > 25 µM.
Regarding `CCCc1cc(-c2cc(O)n3nc(C)c(CC)c3n2)no1` [SACC-0048722], the “antagonist Io (%)” value in assay [1] was found to be 56%. In addition, in assay [2], the EC50 was < 0.0285 µM and the IC50 turned out to be 4.32 µM. In assay [3], the “validation mark in dose-response assay” value is reported as “*** (molecules which are either off-target or of low activity (<25 μM))”, the EC50 was 4.17 µM and the IC50 was > 25 µM.
Regarding `O=C(NC(=S)NNC(=O)c1cc(-c2ccccc2)nc2ccccc12)c1cccs1` [SACC-0117741], the “agonist NPA (%)” value in assay [1] stood at 127%. Also, in assay [2], the EC50 was found to be 1.89 µM and the IC50 came to 1.49 µM. In assay [3], the “validation mark in dose-response assay” value was “*** (molecules which are either off-target or of low activity (<25 μM))”, the EC50 amounted to 1.74 µM and the IC50 was < 0.0285 µM.
Regarding `O=C(CCc1nc(-c2cccs2)no1)Nc1ccc(-n2cnc3ccccc32)nc1` [SACC-0114394], the “agonist NPA (%)” value in assay [1] is recorded as 152%. In addition, in assay [2], the EC50 worked out at 4.19 µM and the IC50 was 4.32 µM. In assay [3], the “validation mark in dose-response assay” value is listed as “*** (molecules which are either off-target or of low activity (<25 μM))”, the EC50 amounted to 12 µM and the IC50 stood at 10.9 µM.
On to `CCNc1nc(NCc2ccco2)c2ccccc2n1` [SACC-0055093], for which the “agonist NPA (%)” value in assay [1] is given as 128%. For the same molecule, in assay [2], the EC50 amounted to 0.683 µM and the IC50 was found to be 0.376 µM. Further, in assay [3], the “validation mark in dose-response assay” value is reported as “*** (molecules which are either off-target or of low activity (<25 μM))”, the EC50 turned out to be 0.898 µM and the IC50 came to 10.3 µM.
